Measurements published in patent publication US20080161234A1, “Composition Comprising Lactic Acid and Lactoferrin” (priority 2004, published 2008).
Where a name gives a salt, the structure may show the parent alone.

Assays:
Format in all cases: cell-based
C. albicans (ATCC 64549) = assay: Microbicidal microplate assay (viable counts), C. albicans
Description: The bacterial strains S. aureus 1800 (CCUG 1800), E. coli 06, and the yeast C. albicans (ATCC 64549) have been used in the microplate assay. All microorganisms were cultured in brain heart infusion medium (BHI) on a shaker over night at 37° C. A volume of the culture was transferred to a new tube with BHI and incubated for two more h on the shaker. The bacteria were harvested in the log phase, washed once and thereafter suspended in the broth used for the microplate assay. The suspension was adjusted spectrophotometrically and diluted to a concentration of approximately 4×10^6 cells per ml at 650 nm. Washed cells were suspended in 0.2% BP (pH 7.0) or BHI medium diluted 1/10 (0.34%, pH 6.7-6.9) (Difco, USA). The concentration of bacterial or fungal cells was spectrophotometrically adjusted. LF or peptide, serially diluted in BHIdil or BP by twofold steps (unless otherwise stated), were added in triplicate to the wells of a microtiterplate (200 ul per well). The bacterial or yeast cell solutions were added in 10 ul volumes to give a final concentration of approximately 2×10^5 cells per ml. The concentration of the stock solution was always checked by viable counts. The microplate was incubated at 37° C. in a humid chamber for 2 h unless otherwise stated. Five ul were taken from each well and added as a drop onto a blood agar plate and incubated over night at 37° C. In some experiments more thorough viable counts were performed and the killing was expressed as remaining colony forming units in relation to the inoculum. The lower limit for detection of microorganisms was 200 CFU/ml. The antimicrobial activity of human LF was analysed by the microbicidal assay described above. Different microbes such as C. albicans, E. coli and S. aureus were analysed with respect to their survival in lactate (not containing the inert gel base, which makes the gel unsuitable for the microbicidal assay) containing LF. […] LF was incubated together with various concentrations of lactate diluted in 0.2% bactopeptone and C. albicans for 2 h. Thereafter each solution was analysed for viable counts.

[1] = system: S. aureus 1800 (CCUG 1800); assay: Microbicidal microplate-droplet assay, S. aureus
Description: (§1) The bacterial strains S. aureus 1800 (CCUG 1800), E. coli 06, and the yeast C. albicans (ATCC 64549) have been used in the microplate assay. All microorganisms were cultured in brain heart infusion medium (BHI) on a shaker over night at 37° C. A volume of the culture was transferred to a new tube with BHI and incubated for two more h on the shaker. The bacteria were harvested in the log phase, washed once and thereafter suspended in the broth used for the microplate assay. The suspension was adjusted spectrophotometrically and diluted to a concentration of approximately 4×10^6 cells per ml at 650 nm. Washed cells were suspended in 0.2% BP (pH 7.0) or BHI medium diluted 1/10 (0.34%, pH 6.7-6.9) (Difco, USA). The concentration of bacterial or fungal cells was spectrophotometrically adjusted. LF or peptide, serially diluted in BHIdil or BP by twofold steps (unless otherwise stated), were added in triplicate to the wells of a microtiterplate (200 ul per well). The bacterial or yeast cell solutions were added in 10 ul volumes to give a final concentration of approximately 2×10^5 cells per ml. The concentration of the stock solution was always checked by viable counts. The microplate was incubated at 37° C. in a humid chamber for 2 h unless otherwise stated. Five ul were taken from each well and added as a drop onto a blood agar plate and incubated over night at 37° C. In some experiments more thorough viable counts were performed and the killing was expressed as remaining colony forming units in relation to the inoculum. The lower limit for detection of microorganisms was 200 CFU/ml. The antimicrobial activity of human LF was analysed by the microbicidal assay described above. Different microbes such as C. albicans, E. coli and S. aureus were analysed with respect to their survival in lactate (not containing the inert gel base, which makes the gel unsuitable for the microbicidal assay) containing LF.

E. coli 06 = assay: Microbicidal microplate-droplet assay, E. coli; design: key to E. coli killing, growth grade in droplet assay: +++ means that the number of colony forming units (CFU) contained within 5 ul of a droplet formed a smooth layer of bacteria; ++ means that a “ruffled” area is seen; 0 means that no CFU were found in triplicate samples of 5 ul (>99.95 killed of the inoculum)
Description: as §1

L. jensenii = assay: Survival of L. jensenii in lactate with LF; conditions: lactate 1%, 0.34% BHI, CO2, 3 h
Description: L. gasseri and L. jensenii were cultured on chocolate-agar plates for 24 h in 5% CO2/95% air. They were thereafter harvested and added to BHI (0.34%). After washing the bacterial solutions were adjusted spectrophotometrically and diluted to 8×10^6 bacteria/ml.
Washed cells were suspended in 0.2% BP (pH 7.0) or BHI medium diluted 1/10 (0.34%, pH 6.7-6.9) (Difco, USA). The concentration of bacterial or fungal cells was spectrophotometrically adjusted. LF or peptide, serially diluted in BHIdil or BP by twofold steps (unless otherwise stated), were added in triplicate to the wells of a microtiterplate (200 ul per well). The bacterial or yeast cell solutions were added in 10 ul volumes to give a final concentration of approximately 2×10^5 cells per ml. The concentration of the stock solution was always checked by viable counts. The microplate was incubated at 37° C. in a humid chamber for 2 h unless otherwise stated. Five ul were taken from each well and added as a drop onto a blood agar plate and incubated over night at 37° C. In some experiments more thorough viable counts were performed and the killing was expressed as remaining colony forming units in relation to the inoculum. The lower limit for detection of microorganisms was 200 CFU/ml.
L. gasseri survived better in the assay system than did L. jensenii. Undiluted lactate (5%) affected the survival of Lactobacillus.

[2] = in the absence or presence of LF

Cl [HCl, hydrogen chloride, reference compound]
Candidacidal activity with lactate replaced by HCl (C. albicans (ATCC 64549); HCl giving the same pH as lactate, undiluted, with LF): reduced Candidacidal activity

CC(O)C(=O)O (stereo not drawn) [lactate, α-hydroxipropionic acid]
reduction of Candida (C. albicans (ATCC 64549); lactate 1% without LF, 2 h): 65%
antifungal activity (C. albicans (ATCC 64549); undiluted lactate): an antifungal activity was observed
survival of C. albicans (C. albicans (ATCC 64549); undiluted lactate (5%), 2 h): no yeast cells survived
antimicrobial activity against C. albicans (C. albicans (ATCC 64549); undiluted lactate (5%), without LF or HL2): complete
antibacterial activity towards S. aureus [1, 2]: good
S. aureus killing, percentage of bacteria remaining in relation to the inoculum ([1]; lactate 0.2% alone (HLF t0 ug/ml), 2 h incubation): 0 (0 = no bacteria in triplicate samples of 5 ul (>99.95 killed of the inoculum).)
S. aureus killing, percentage of bacteria remaining in relation to the inoculum ([1]; lactate 0.2% alone (HLF t0 ug/ml), 5 h incubation): 0 (0 = no bacteria in triplicate samples of 5 ul (>99.95 killed of the inoculum).)
S. aureus killing, percentage of bacteria remaining in relation to the inoculum ([1]; lactate 1% alone (HLF t0 ug/ml), 2 h incubation): 0 (0 = no bacteria in triplicate samples of 5 ul (>99.95 killed of the inoculum).)
S. aureus killing, percentage of bacteria remaining in relation to the inoculum ([1]; lactate 1% alone (HLF t0 ug/ml), 5 h incubation): 0 (0 = no bacteria in triplicate samples of 5 ul (>99.95 killed of the inoculum).)
S. aureus killing, percentage of bacteria remaining in relation to the inoculum ([1]; lactate 5% alone (HLF t0 ug/ml), 2 h incubation): 0 (0 = no bacteria in triplicate samples of 5 ul (>99.95 killed of the inoculum).)
S. aureus killing, percentage of bacteria remaining in relation to the inoculum ([1]; lactate 5% alone (HLF t0 ug/ml), 5 h incubation): 0 (0 = no bacteria in triplicate samples of 5 ul (>99.95 killed of the inoculum).)
antimicrobial activity against S. aureus ([1]; undiluted lactate, without LF): complete
antibacterial activity towards E. coli (E. coli 06; [2]): good
E. coli killing, growth grade in droplet assay (E. coli 06; lactate 0.2% alone (HLF 0 ug/ml), 2 h incubation): ++
E. coli killing, percentage of bacteria remaining in relation to the inoculum (E. coli 06; lactate 0.2% alone (HLF 0 ug/ml), 5 h incubation): 5%
E. coli killing, percentage of bacteria remaining in relation to the inoculum (E. coli 06; lactate 1% alone (HLF 0 ug/ml), 5 h incubation): 6%
E. coli killing, percentage of bacteria remaining in relation to the inoculum (E. coli 06; lactate 5% alone (HLF 0 ug/ml), 2 h incubation): 0 (0 means that no CFU were found in triplicate samples of 5 ul (>99.95 killed of the inoculum))
E. coli killing, percentage of bacteria remaining in relation to the inoculum (E. coli 06; lactate 5% alone (HLF 0 ug/ml), 5 h incubation): 0 (0 means that no CFU were found in triplicate samples of 5 ul (>99.95 killed of the inoculum))
survival of E. coli (E. coli 06; undiluted lactate (5%), 2 h): no bacteria survived
antimicrobial activity against E. coli (E. coli 06; undiluted lactate, without LF): complete
survival of L. jensenii (L. jensenii): did not survive
